Columns and labels:
[1] = tested on: wheat rust fungus (Puccinia recondite); assay: Test Example 4: foliar spray of flowable formulations on wheat, inoculation with wheat rust fungus, lesion area; type: in vivo, Puccinia recondite on wheat (cultivar. Shirogane); conditions: lesion area after ten days at 23° C.
Experimental: Five (5) parts of the present compound 1, 35 parts of a mixture of white carbon and ammonium polyoxyethylene alkyl ether sulfate (the weight ratio of 1:1) and […] of water were mixed, and the mixture was then finely-ground by a wet grinding method to obtain a flowable formulation comprising the present compound 1. Separately, the flowable formulation comprising the present compound 2-1 was prepared according to the above-mentioned similar method except that the present compound 2-1 was used instead of the present compound 1 to form a flowable formulation comprising the present compound 2-1.
Each of the above-mentioned respective flowable formulations, and the flowable formulation comprising the present compound 1 and the present compound 2-1 that was prepared according to the above-mentioned Formulation Example 3 was diluted with water such that each concentration of the respective compounds in the dilution solutions was adjusted to that indicated in Table 5, to prepare the dilution solutions, respectively.
A plastic pot was filled with soil, and thereto wheat (cultivar. Shirogane) was seeded, and the plants were grown in a greenhouse for ten days. […]
From each of the lesion area of the treated group and the untreated group, respectively, the efficacy of the treated group was calculated by the below-mentioned Equation 2. […]

wheat leaf blight fungus = assay: Test Example 3: growth of wheat leaf blight fungus in YBG medium, microtiter plate, absorbance at 550 nm; type: cell-based; conditions: 18° C., six days
Experimental: The present compound 1 or the present compound 2-1 was dissolved into dimethyl sulfoxide such that each concentration of the present compound 1 or the present compound 2-1 was adjusted to one hundred fifty times as much as the concentration indicated in the below-mentioned Table 4. The resultant agent solution was dispensed into a microliter plate (with 96 wells) in 1 μl portion thereof per well. One hundred forty nine (149) μl of YBG medium (which was prepared by dissolving 10 g of yeast extract, 10 g of Bacto Peptone, and 20 mL of glycerol into 1 L of water, followed by sterilizing the medium) was dispensed into the wells to which the agent solution(s) was/were dispensed. The plate was cultivated at 18° C. for six days, thereby allowing wheat leaf blight fungus to undergo proliferation, and the absorbance at 550 nm of each well of the micro titer plate was then measured to examine a degree of growth of the wheat leaf blight fungus (hereinafter referred to as “treated group”).
Whereas, wheat leaf blight fungus was proliferated similarly to the case of the treated group except that dimethyl sulfoxide was used instead of the agent solution, and the degree of the growth was examined (hereinafter referred to as “untreated group”). The efficacy was calculated from the respective obtained degree of growth by the below-mentioned “Equation 1”.
Efficacy(%)=100×(X−Y)/X Equation 1 […]

CNC(=O)C(OC)c1ccccc1COc1cc(C)ccc1C (stereo not shown) [Present compound 1]
Efficacy (%) ([1]; concentration 0.0005 ppm): 22% | Efficacy (%) ([1]; concentration 0.01 ppm): 46% | Efficacy (%) (wheat leaf blight fungus; concentration in medium 0.005 ppm): 20% | Efficacy (%) (wheat leaf blight fungus; concentration in medium 0.1 ppm): 65%

Reference: patent US20190008151A1, “PLANT DISEASE CONTROL COMPOSITION AND PLANT DISEASE CONTROL METHOD” (SUMITOMO CHEMICAL COMPANY, LIMITED, priority 2015, published 2019)
